These results are taken from US20230112800A1 (priority 2021, published 2023).

The conditions of series [1]: CD-1 mice, 500 mg/kg suspended in 0.5% Methocel A4M.
The conditions of series [2]: rats, niclosamide dose of 10 mg/kg by oral gavage, n = 5.
A further series concerns SARS-CoV. The conditions noted are these: Vero cells infected by SARS-CoV (2002 pandemic); cited from earlier work.
The subject of the next series is COVID-19. The conditions noted are these: in-vitro isolate COVID-19, Vero E6 cells; cited from earlier work.

SMILES strings stand for the structures. Where two headings read alike, the source gives them in different places.

On to `O=C(Nc1ccc([N+](=O)[O-])cc1Cl)c1cc(Cl)ccc1O` [Crystalline Nic], for which, in series [1], the AUC0-last came to 1454.6 ng·h/mL, the Cmax was found to be 661.7 ng/mL and the Tmax was found to be 30 min.

On to `O=C(Nc1ccc([N+](=O)[O-])cc1Cl)c1cc(Cl)ccc1O`, for which, in series [2], the AUCInf is recorded as 188 (84) h*ng/mL, the AUC_%Extrap_obs is 8.4 (7.0) %, the AUClast is 168 (64) h*ng/mL and the AUClast/D is 16.8 (6.4) h*mg/mL. Besides, in series [2], the Cmax is reported as 48.3 (20.6) ng/mL, the MRTInf_obs is given as 3.56 (0.70) h, the T1/2 is on record as 1.00 (0.30) h and the Tmax was 3.60 (0.89) h.

Regarding `CCN(CC)CCCC(C)Nc1ccnc2cc(Cl)ccc12` (stereo not shown) [chloroquine], the values for the half-inhibitory concentration (IC50) with SARS-CoV and in the series on COVID-19 were 4400 nM and 1130 nM, respectively.
